The values below come from PMC6804233, “Design and Synthesis of Novel 1,3-Thiazole and 2-Hydrazinyl-1,3-Thiazole Derivatives as Anti-Candida Agents: In Vitro Antifungal Screening, Molecular Docking Study, and Spectroscopic Investigation of their Binding Interaction with Bovine Serum Albumin” (Molecules, 2019).

The target of this experiment is T1, bovine serum albumin (BSA) (Bos taurus, UniProt P02769).
T1 construct: gene ALB; BSA fraction V
Description: Intrinsic tryptophan fluorescence quenching titration (Stern–Volmer; double-log plot for Kb), pH […], room temperature. Format: binding. As to conditions: read-out: Kb × 10^5 (M^-1) (converted).

T1 sequence (P02769 25-607): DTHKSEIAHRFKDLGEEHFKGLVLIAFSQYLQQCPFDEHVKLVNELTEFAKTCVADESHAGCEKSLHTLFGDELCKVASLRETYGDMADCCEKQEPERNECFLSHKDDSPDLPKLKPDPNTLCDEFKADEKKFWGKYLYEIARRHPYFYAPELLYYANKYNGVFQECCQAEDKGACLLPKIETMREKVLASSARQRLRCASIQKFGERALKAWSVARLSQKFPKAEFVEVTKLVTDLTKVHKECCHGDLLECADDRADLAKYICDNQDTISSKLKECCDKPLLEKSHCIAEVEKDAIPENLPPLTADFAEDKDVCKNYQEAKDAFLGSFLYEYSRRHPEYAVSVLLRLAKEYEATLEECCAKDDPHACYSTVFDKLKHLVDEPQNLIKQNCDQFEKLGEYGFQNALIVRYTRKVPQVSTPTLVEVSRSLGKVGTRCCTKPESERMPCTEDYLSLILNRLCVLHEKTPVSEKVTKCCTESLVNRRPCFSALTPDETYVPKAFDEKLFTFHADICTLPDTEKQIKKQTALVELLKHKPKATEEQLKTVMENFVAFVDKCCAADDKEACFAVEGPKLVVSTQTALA

For `Cc1ccc(-c2csc(NN=C(COc3cc(C)ccc3C(C)C)c3ccccc3)n2)cc1` [7e, 2-(2-(2-(2-isopropyl-5-methylphenoxy)-1-phenylethylidene)hydrazineyl)-4-(p-tolyl)thiazole], the Kd was 4.42 µM.
